{
  "source": "paper PMC6407204",
  "about": "“Oral administration of the cannabigerol derivative VCE-003.2 promotes subventricular zone neurogenesis and protects against mutant huntingtin-induced neurodegeneration” (Translational Neurodegeneration, 2019)",
  "key": {"liver": {"tested_on": "liver", "assay": "Hepatotoxicity of chronic administration, liver hematoxylin-eosin staining", "assay_type": "in vivo", "conditions": "mouse, data not shown", "procedure": "As VCE-003.2 was previously shown to exert a neuroprotective action in preclinical HD models, and considering its pro-neurogenic profile, we evaluated the pathophysiological impact and potential therapeutic value of VCE-003.2 after oral administration. Pharmacokinetic analyses were performed in rats after oral administration of VCE-003.2 (50 mg/kg) dissolved in sesame oil. Plasma VCE-003.2 levels peaked at 8 h (Tmax) and then slowly declined to basal levels. […] We also investigated some critical ADME/Tox parameters. […] We also determined the potential hepatotoxicity of chronic VCE-003.2 administration by hematoxylin-eosin staining. […] We also determined the impact of VCE-003.2 administration on peripheral biomarkers by quantifying the levels of cytokines and other soluble mediators."}, "hERG channel": {"molecular_target": "hERG channel (Homo sapiens, UniProt Q12809)", "sequence (Q12809 whole entry)": "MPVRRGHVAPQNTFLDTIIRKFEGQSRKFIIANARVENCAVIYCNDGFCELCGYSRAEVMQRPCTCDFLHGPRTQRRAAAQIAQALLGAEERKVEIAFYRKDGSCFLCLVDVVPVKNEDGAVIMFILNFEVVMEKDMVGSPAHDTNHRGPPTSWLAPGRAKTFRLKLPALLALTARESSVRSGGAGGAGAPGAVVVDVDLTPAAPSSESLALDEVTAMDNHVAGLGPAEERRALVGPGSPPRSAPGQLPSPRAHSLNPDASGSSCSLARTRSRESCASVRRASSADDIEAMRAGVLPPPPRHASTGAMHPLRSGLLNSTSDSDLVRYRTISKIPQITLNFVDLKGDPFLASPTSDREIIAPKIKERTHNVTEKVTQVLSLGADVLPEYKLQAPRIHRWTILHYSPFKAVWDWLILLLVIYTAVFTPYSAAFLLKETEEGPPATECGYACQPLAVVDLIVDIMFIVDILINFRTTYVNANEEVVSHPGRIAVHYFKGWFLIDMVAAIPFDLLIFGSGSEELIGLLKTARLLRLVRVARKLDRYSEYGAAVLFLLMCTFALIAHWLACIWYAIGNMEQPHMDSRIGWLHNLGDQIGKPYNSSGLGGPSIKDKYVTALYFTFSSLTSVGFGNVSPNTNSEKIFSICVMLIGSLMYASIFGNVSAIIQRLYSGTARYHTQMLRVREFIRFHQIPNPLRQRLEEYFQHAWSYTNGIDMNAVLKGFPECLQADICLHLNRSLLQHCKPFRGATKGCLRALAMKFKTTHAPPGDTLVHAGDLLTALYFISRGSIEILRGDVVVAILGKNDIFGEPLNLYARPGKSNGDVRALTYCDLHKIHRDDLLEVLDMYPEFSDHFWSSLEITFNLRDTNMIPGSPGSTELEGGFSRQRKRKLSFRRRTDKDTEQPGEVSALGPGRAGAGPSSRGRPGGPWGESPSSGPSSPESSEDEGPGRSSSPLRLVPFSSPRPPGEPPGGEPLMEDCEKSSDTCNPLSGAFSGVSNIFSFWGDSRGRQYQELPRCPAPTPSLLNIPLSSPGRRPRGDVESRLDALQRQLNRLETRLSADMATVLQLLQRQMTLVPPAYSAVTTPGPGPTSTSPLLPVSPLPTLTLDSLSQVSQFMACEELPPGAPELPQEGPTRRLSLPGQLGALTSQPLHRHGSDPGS"}, "CYP2D6": {"molecular_target": "T1, CYP2D6 (Homo sapiens, UniProt P10635)", "T1 construct": "from tissue; host or cells: human liver microsomes", "T1 sequence (P10635 whole entry)": "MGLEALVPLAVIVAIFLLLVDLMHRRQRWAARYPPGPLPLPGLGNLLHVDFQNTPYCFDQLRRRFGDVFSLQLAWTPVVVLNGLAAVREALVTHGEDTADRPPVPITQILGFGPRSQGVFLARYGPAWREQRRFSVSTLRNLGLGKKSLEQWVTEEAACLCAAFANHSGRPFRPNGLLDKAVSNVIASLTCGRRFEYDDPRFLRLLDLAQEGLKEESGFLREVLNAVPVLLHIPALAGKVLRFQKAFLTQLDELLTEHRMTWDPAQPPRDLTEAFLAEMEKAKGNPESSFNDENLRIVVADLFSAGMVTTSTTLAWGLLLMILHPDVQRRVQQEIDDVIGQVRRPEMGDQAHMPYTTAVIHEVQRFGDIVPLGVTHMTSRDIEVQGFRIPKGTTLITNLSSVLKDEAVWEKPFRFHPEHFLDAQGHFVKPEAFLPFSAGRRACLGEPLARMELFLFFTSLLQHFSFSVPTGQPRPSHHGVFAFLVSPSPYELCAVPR", "assay": "biochemical", "assay_type": "in vitro ADME", "conditions": "Substrate = Dextromethorphan, human liver microsomes", "procedure": "(§1) Supplementary file 40035_2019_148_MOESM2_ESM.pdf: Additional file 2: Cytochrome P450 Inhibition (IC50 Determination). CYP1A Inhibition. VCE-003.2 (0.1, 0.25, 1, 2.5, 10, 25 μM in DMSO; final DMSO concentration = 0.3%) was incubated with human liver microsomes (0.25 mg/mL) and NADPH (1 mM) in the presence of the probe substrate ethoxyresorufin (0.5 μM) for 5 min at 37 °C. The selective CYP1A inhibitor, alpha-naphthoflavone, was screened alongside the test compounds as a positive control. CYP2B6 Inhibition. VCE-003.2 (0.1, 0.25, 1, 2.5, 10, 25 μM in DMSO; final DMSO concentration = 0.3%) was incubated with human liver microsomes (0.1 mg/mL) and NADPH (1 mM) in the presence of the probe substrate bupropion (110 μM) for 5 min at 37 °C. The selective CYP2B6 inhibitor, ticlopidine, was screened alongside the test compounds as a positive control. CYP2C8 Inhibition. VCE-003.2 (0.1, 0.25, 1, 2.5, 10, 25 μM in DMSO; final DMSO concentration = 0.3%) was incubated with human liver microsomes (0.25 mg/mL) and NADPH (1 mM) in the presence of the probe substrate paclitaxel (7.5 μM) for 30 min at 37 °C. The selective CYP2C8 inhibitor, montelukast, was screened alongside the test compounds as a positive control. CYP2C9 Inhibition. VCE-003.2 (0.1, 0.25, 1, 2.5, 10, 25 μM in DMSO; final DMSO concentration = 0.3%) was incubated with human liver microsomes (1 mg/mL) and NADPH (1 mM) in the presence of the probe substrate tolbutamide (120 μM) for 60 min at 37 °C. The selective CYP2C9 inhibitor, sulphaphenazole, was screened alongside the test compounds as a positive control. CYP2C19 Inhibition. VCE-003.2 (0.1, 0.25, 1, 2.5, 10, 25 μM in DMSO; final DMSO concentration = 0.3%) was incubated with human liver microsomes (0.5 mg/mL) and NADPH (1 mM) in the presence of the probe substrate mephenytoin (25 μM) for 60 min at 37 °C. The selective CYP2C19 inhibitor, tranylcypromine, was screened alongside the test compounds as a positive control. CYP2D6 Inhibition. VCE-003.2 (0.1, 0.25, 1, 2.5, 10, 25 μM in DMSO; final DMSO concentration = 0.3%) was incubated with human liver microsomes (0.5 mg/mL) and NADPH (1 mM) in the presence of the probe substrate dextromethorphan (5 μM) for 5 min at 37 °C. […] CYP3A4 Inhibition. VCE-003.2 (0.1, 0.25, 1, 2.5, 10, 25 μM in DMSO; final DMSO concentration = 0.3%) was incubated with human liver microsomes (0.1 mg/mL) and NADPH (1 mM) in the presence of the probe substrate midazolam (2.5 μM) for 5 min at 37 °C. The selective CYP3A4 inhibitor, ketoconazole, was screened alongside the test compounds as a positive control. CYP3A4 Inhibition. VCE-003.2 (0.1, 0.25, 1, 2.5, 10, 25 μM in DMSO; final DMSO concentration = 0.3%) was incubated with human liver microsomes (0.5 mg/mL) and NADPH (1 mM) in the presence of the probe substrate testosterone (50 μM) for 5 min at 37 °C. The selective CYP3A4 inhibitor, ketoconazole, was screened alongside the test compounds as a positive control. For the CYP1A incubations, the reactions were terminated by methanol, and the formation of the metabolite, resorufin, was monitored by fluorescence (excitation wavelength = 535 nm, emission wavelength = 595 nm). For the CYP2B6, CYP2C9, CYP2C19, CYP2D6, and CYP3A4 incubations, the reactions were terminated by methanol. The samples were centrifuged, and the supernatants combined for the simultaneous analysis of 4-hydroxytolbutamide, 4-hydroxymephenytoin, dextrorphan, and 1-hydroxymidazolam by LC-MS/MS. Hydroxybupropion, 6α-hydroxypaclitaxel and 6ß-hydroxytestosterone were analyzed separately by LC-MS/MS. A decrease in the formation of the metabolites compared to vehicle control was used to calculate IC50 values. (PDF 323 kb)"}, "CYP2C19": {"molecular_target": "T2, CYP2C19 (Homo sapiens, UniProt P33261)", "T2 construct": "from tissue; host or cells: human liver microsomes", "T2 sequence (P33261 whole entry)": "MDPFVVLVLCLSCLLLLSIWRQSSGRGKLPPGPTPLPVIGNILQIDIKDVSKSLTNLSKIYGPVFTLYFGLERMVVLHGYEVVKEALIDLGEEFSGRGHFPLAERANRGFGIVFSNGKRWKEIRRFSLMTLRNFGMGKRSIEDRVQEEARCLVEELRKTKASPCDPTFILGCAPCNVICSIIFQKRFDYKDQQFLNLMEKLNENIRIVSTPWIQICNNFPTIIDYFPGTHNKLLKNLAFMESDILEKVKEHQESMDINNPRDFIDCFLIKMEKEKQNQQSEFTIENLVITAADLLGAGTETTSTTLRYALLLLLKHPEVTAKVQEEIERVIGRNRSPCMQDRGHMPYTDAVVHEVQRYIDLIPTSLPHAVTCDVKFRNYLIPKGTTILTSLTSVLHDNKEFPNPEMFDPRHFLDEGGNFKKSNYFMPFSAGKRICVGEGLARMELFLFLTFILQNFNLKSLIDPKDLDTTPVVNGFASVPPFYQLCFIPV", "assay": "biochemical", "assay_type": "in vitro ADME", "conditions": "Substrate = Mephenytoin, human liver microsomes", "procedure": "as §1"}, "CYP2B6": {"molecular_target": "T3, CYP2B6 (Homo sapiens, UniProt P20813)", "T3 construct": "from tissue; host or cells: human liver microsomes", "T3 sequence (P20813 whole entry)": "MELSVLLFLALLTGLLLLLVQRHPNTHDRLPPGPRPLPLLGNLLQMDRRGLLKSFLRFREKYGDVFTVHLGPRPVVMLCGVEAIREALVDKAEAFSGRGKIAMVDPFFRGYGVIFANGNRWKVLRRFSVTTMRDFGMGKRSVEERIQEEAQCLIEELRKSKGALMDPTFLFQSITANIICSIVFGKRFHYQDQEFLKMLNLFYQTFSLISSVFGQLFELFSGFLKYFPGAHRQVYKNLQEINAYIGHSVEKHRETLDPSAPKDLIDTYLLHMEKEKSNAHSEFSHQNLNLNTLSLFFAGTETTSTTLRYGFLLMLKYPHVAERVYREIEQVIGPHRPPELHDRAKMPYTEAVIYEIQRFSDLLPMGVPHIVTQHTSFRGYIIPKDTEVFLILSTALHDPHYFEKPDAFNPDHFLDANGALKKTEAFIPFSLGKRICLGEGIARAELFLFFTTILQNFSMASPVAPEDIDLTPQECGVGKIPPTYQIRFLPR", "assay": "biochemical", "assay_type": "in vitro ADME", "conditions": "Substrate = Bupropion, human liver microsomes", "procedure": "as §1"}, "CYP2C9": {"molecular_target": "T4, CYP2C9 (Homo sapiens, UniProt P11712)", "T4 construct": "from tissue; host or cells: human liver microsomes", "T4 sequence (P11712 whole entry)": "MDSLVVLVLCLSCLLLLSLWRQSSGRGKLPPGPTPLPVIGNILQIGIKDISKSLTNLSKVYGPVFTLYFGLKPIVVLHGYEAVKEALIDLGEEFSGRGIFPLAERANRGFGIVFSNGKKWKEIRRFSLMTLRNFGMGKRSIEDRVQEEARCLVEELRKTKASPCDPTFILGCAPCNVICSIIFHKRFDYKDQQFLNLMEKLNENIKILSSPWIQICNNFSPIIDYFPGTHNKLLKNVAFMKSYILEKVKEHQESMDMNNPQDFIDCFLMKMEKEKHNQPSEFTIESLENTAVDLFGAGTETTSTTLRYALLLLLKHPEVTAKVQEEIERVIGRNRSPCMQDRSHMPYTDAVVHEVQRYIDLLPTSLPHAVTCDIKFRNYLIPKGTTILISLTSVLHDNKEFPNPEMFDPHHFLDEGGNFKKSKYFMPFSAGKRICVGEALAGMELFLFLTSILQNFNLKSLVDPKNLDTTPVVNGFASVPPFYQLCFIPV", "assay": "biochemical", "assay_type": "in vitro ADME", "conditions": "Substrate = Tolbutamide, human liver microsomes", "procedure": "as §1"}, "CYP2C8": {"molecular_target": "T5, CYP2C8 (Homo sapiens, UniProt P10632)", "T5 construct": "from tissue; host or cells: human liver microsomes", "T5 sequence (P10632 whole entry)": "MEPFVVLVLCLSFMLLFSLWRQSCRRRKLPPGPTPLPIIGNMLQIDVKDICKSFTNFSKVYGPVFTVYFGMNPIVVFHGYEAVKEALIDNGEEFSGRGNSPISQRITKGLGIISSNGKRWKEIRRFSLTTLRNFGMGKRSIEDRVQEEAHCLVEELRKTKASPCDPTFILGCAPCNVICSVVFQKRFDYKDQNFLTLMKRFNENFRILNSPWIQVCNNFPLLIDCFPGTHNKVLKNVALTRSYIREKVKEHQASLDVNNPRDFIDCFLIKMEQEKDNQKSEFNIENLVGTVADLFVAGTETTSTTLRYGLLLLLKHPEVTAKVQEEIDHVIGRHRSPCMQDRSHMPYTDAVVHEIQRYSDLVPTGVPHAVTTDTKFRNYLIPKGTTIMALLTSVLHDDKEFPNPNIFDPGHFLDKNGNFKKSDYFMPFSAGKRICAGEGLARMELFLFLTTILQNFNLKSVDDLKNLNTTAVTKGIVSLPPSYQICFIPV", "assay": "biochemical", "assay_type": "in vitro ADME", "conditions": "Substrate = Paclitaxel, human liver microsomes", "procedure": "as §1"}, "CYP3A4": {"molecular_target": "T6, CYP3A4 (Homo sapiens, UniProt P08684)", "T6 construct": "from tissue; host or cells: human liver microsomes", "T6 sequence (P08684 whole entry)": "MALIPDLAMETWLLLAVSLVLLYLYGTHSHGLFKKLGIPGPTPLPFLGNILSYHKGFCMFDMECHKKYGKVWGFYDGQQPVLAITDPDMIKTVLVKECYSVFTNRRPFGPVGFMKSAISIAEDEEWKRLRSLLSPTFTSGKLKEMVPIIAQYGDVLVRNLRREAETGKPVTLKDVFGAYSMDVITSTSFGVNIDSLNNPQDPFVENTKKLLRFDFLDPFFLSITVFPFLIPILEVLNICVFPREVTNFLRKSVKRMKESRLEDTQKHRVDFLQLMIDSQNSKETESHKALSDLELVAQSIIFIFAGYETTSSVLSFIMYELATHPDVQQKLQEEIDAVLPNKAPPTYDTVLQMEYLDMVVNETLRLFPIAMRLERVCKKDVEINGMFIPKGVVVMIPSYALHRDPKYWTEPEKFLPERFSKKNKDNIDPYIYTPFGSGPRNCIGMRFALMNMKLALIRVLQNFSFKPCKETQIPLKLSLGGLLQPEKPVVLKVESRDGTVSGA", "assay": "biochemical", "assay_type": "in vitro ADME", "conditions": "human liver microsomes", "procedure": "as §1"}},
  "data": [
    {"smiles": "CCCCCC1=C(NCC)C(=O)C(CC=C(C)CCC=C(C)C)=C(O)C1=O", "note": "[VCE-003.2, 2-(3,7-dimethyl-octa-2,6-dienyl)-6-ethylamino-3-hydroxy-5-pentyl-(1,4) benzoquinone]", "values": [
      {"measurement": "hepatotoxicity, liver histology", "setting": "liver", "result": "did not show any evidence of fibrosis, steatosis, vacuolization, ballooning or inflammation"},
      {"measurement": "hERG channel activity inhibition (in words)", "setting": "hERG channel", "result": "did not inhibit hERG channel activity"},
      {"measurement": "IC50", "setting": "CYP2D6", "result": "> 25", "unit": "µM"},
      {"measurement": "IC50", "setting": "CYP2C19", "result": "> 25", "unit": "µM"},
      {"measurement": "IC50", "setting": "CYP2B6", "result": "> 25", "unit": "µM"},
      {"measurement": "IC50", "setting": "CYP2C9", "result": "15.7 ± 1.96", "unit": "µM"},
      {"measurement": "IC50", "setting": "CYP2C8", "result": "13 ± 2.4", "unit": "µM"},
      {"measurement": "IC50", "setting": "CYP3A4; Substrate = Midazolam", "result": "> 25", "unit": "µM"},
      {"measurement": "IC50", "setting": "CYP3A4; Substrate = Testosterone", "result": "> 25", "unit": "µM"}
    ]}
  ]
}
